# In patent US20240207308A1, “METHOD FOR CULTURING DENDRITIC CELLS” (NANOFAENTECH CO., LTD., priority 2021, published 2024):
# Legend:
# Assay type in all cases: cell-based, mouse
# spleen dendritic cells [1] = assay: Viability of spleen dendritic cells by 7-AAD staining; conditions: 6 hours of culture
# Experimental: Dendritic cells are characterized by rapid cell death during culture while self-activation occurs. In addition to the inhibition of self-activation, it was measured whether the viability of dendritic cells is changed. Cell viability was determined by staining of culturing cells with 7-AAD and measuring the number of cells not stained with the above fluorescent substance.
# spleen dendritic cells [2] = assay: Flow cytometry of CD86, MHC-II, CD80, CD40 on cultured spleen dendritic cells (self-activation)
# Experimental: Mouse spleen dendritic cells were obtained by adding EDTA-BSS (Balanced Salt Solution) buffer and collagenase solution (DMEM containing 100 units of collagenase type IV, medium containing low glucose) to spleens of female C57BL/6 mice and cutting it with surgical scissors, mixing the same with 6 mL of collagenase treatment solution, and incubating the mixture for 30 minutes. The separated whole spleen tissue was filtered using a 70 μm cell strainer (Falcon), followed by centrifugation at 1800 rpm for 5 minutes thus to separate the cells. Red blood cells were removed by adding red blood cell lysis buffer (Sigma-Aldrich) to the cells and washed twice with RPMI-1640 medium containing 10% fetal bovine serum (FBS). Dendritic cells were reacted with CD11c^+ antibody-bound microbeads and isolated using CD11c Microbeads Ultrapure (MACS, Milteni Biotec, USA).
# In FIG. 2, in order to determine whether self-activation occurs when primary dendritic cells isolated from the spleen are cultured, dendritic cells were dispensed in a 24-well plate at 2×10^5/mL, and after culturing for 6 hours in RPMI-1640 medium at 37° C. under 5% CO2 condition, the expression levels of MHC-II, CD86, CD80 and CD40 were analyzed on the surface of dendritic cells using a flow cytometer (MACSQuant VYB flow cytometer, Miltenyi Biotec). Results measured using a flow cytometer were analyzed using FlowJo v10 (Tree Star, Ashland). The expression levels of CD86, CD80 and CD40 were shown as the percentage of cells stained with CD11c, and the expression level of MHC-II was shown as mean fluorescence intensity (MFI), which is the mean fluorescence intensity of fluorescence.
# In FIG. 7, when culturing spleen dendritic cells, each of the prepared peptides was added at a concentration of 200 μg/mL and the expression level of CD86 was measured 6 hours after culture. When each peptide was used alone for treatment, the expression of CD86 was not inhibited in spleen dendritic cells. […] Compared to when the cells were treated with these three kinds of peptides, the expression was not inhibited even when the two kinds of peptides were used together for treatment. * indicates statistical significance as P<0.05 or less compared to the P1, P1-2, and P2-1 conditions.
# In FIG. 9, peptides containing P1 and P2 and amino acids of these peptides as well as P3 peptide in a combination of three types were added to the spleen dendritic cell culture medium, and after culturing for 6 hours, the expression level of CD86 was measured by flow cytometry.
# In FIG. 24, different concentrations of LP1, LP2 and LP3 were added to reach a concentration of 800 μg/mL, and spleen dendritic cells (2×10^5/mL) were cultured for 6 hours or 24 hours, and the CD86 expression level was measured by flow cytometry (MACSQuant VYB flow cytometer, Miltenyi Biotec). The measured results were analyzed using FlowJo v10 (Tree Star, Ashland).
# In FIG. 25, when spleen primary dendritic cells were dispensed at 2×10^5/mL and cultured for 24 hours while scrambled peptides of S-LP1, S-LP2 and S-LP3 were each added at a concentration of 800 μg/mL, the increase in the expression of CD86 was not inhibited. Further, the expression of CD86 was not reduced even when the scrambled peptides S-P1, S-P2 and S-P3 were simultaneously treated at a concentration of 600 μg/mL, respectively.
# spleen dendritic cells [3] = assay: CD86 expression of spleen dendritic cells after immunostimulant (LPS or poly (I:C)), flow cytometry
# Experimental: In FIG. 14, the expression level of CD86 in spleen primary dendritic cells cultured for 24 hours was measured similarly to the expression level of CD86 increased when E. coli LPS as an activation-inducing agent was used for treatment at a concentration of 1 μg/mL. […] CD86 expression of spleen dendritic cells cultured with addition of fibronectin was not increased even when 1 μg/mL LPS was treated.
# In FIG. 20, compared to LPS binding to Toll-like receptor-4 of immune cells and inflammatory cells including dendritic cells, when poly (I:C) (polyinosinic:polycytidylic acid), which is similar to double-stranded RNA in terms of structure and is known as an immunostimulant that binds to Toll-like receptor-3, was administered at a concentration of 50 μg/mL, the increase in the expression of CD86 in spleen dendritic cells was inhibited when cultured with addition of fibronectin.
substance,measurement,setting,value
fibronectin,number of 7-AAD-negative surviving cells,spleen dendritic cells [1],significantly increased
same,expression level of CD86 or MHC-II (self-activation),"spleen dendritic cells [2]; 200 μg/mL (laminin 200 μg/mL or higher), cultured 6 hours",self-activation did not occur
same,expression of CD86 and MHC-II as well as CD80 and CD40,"spleen dendritic cells [2]; 200 μg/mL, cultured 6 hours",not increased
same,concentration most effective for self-activation of spleen dendritic cells,spleen dendritic cells [2]; cultured 6 hours,200 µg/mL
same,"expression of MHC-II, CD80 and CD40 in addition to CD86","spleen dendritic cells [2]; cultured 6 hours or 24 hours, peptides 200 μg/mL each",significantly inhibited
same,expression of CD86 by LPS stimulation,"spleen dendritic cells [3]; cultured 24 hours with the substance, 1 μg/mL LPS",not increased
same,increase in the expression of CD86 by poly (I:C),"spleen dendritic cells [3]; poly (I:C) 50 μg/mL, 24 hours, peptides 200 μg/mL each",inhibited
